Experimental data taken from patent US6379959B1, “Metalocarboxypeptidase inhibitors and derived molecules used as antitumor agents” (Universitat Autonoma de Barcelona, priority 1996, dated 2002).
Read-outs that look alike come from different tables or passages of the source. Positions of bridges follow the written chain, without caps; N, C: chain ends. No end group written: not given here.

Key:
[1] = system: human pancreatic adenocarcinoma cell line Capan-1; settings: 16 days
Method: Two kinds of tests were carried out; the first one is the treatment of cells of the human pancreatic adenocarcinoma cell line Capan-1 with wtPCI and tail added to the culture medium in absence of serum.
In a culture plate with 96 wells, 5,000 cells were seed per well, in 24 of them. The cells were placed in full medium (DMEM+10%FBS).
In 6 wells (control): 200 μL of serum-free medium (DMEM-FBS) and free of tail were added.
200 μL of serum-free medium with 50 μg/mL of native PCI were added.
In 6 wells, 200 μL of serum-free medium with 0.128 μg of tail/mL were added.
In 6 wells, serum-free medium with 6.4 μg of tail/mL was added.
The medium contained in the wells was changed every 3-4 days. The old medium was sucked out using a Pasteur pipette.
After 16 days, the cell growth per well was evaluated according to the method detailed in the protocol of Section 4.B.2.a.

[2] = system: human pancreatic adenocarcinoma cell line Capan-1; assay: Proliferation test with tetrazolium salts, Capan-1 in medium with serum; format: cell-based; settings: 23 days
Method: In this test, with the aim of determining whether the presence of PCI in the culture medium produces some effect on the growth in vitro of the cellular lines, the final amount of cells was evaluated after a specific number of days, in presence and absence of inhibitor. The final number of cells was determined by means of tetrazolium salts (kit EZ4U) which, being added to the cultures, are reduced by mitochondrial enzymes of the cells, producing derivatives of formazan of a different colour. The amount of formed derivatives depends on the number of existing cells.
1. In a culture plate of 96 wells, in 48 of them, 5,000 cells were seed. Of these 48:
In 8 wells (control), 200 μL of full medium (DMEM+10%FBS) were added without PCI. […]
2. The cells were kept in an incubator at 37° C., 87% of relative humidity and 10% of CO2. The medium contained in the wells was changed every 3-4 days. The old medium was sucked out with a Pasteur pipette. Medium free of PCI was added to the control wells and, to the others, a medium with identical concentration of PCI to which they had previously, was also added.
3. After a specific number of days, the number of cells per well was evaluated by means of the following procedure:
To calculate the result of the test, the following was done: the average of the A620 of the blank ones was substracted from the A620 of each well. Immediately after, the result of the previous subtraction, as well as the average of the A450 of the blank ones was substracted from the A450 of each well. The result thus obtained is directly proportional to the amount of cells present in the well. Next, the average and the typical deviation was obtained from the results of the wells which had undergone identical treatment.
The effect of the presence of the PCI can be expressed employing the cell growth percentage in relation to the controls (without PCI) which is easily calculated: [formula]
A proliferation test with indirect determination of the number of cells by means of tetrazolium salts using the cell line Capan-1 was carried out. This is a human pancreatic adenocarcinoma cell line (ATCC nr. HTB-79), established by Fogh, G. et al. (1977) J. Natl. Cancer Inst., 58: 209-214, and Fogh, J. et al. (1977) J. Natl. Cancer Inst., 59: 221-226, from a liver metastasis.
As it has been explained, the cells were cultivated for 23 days, after which the cell growth was evaluated per well by means of tetrazolium salts. The results obtained are expressed in Table 3, where the average, the standard deviation and the standard error of the cell growth in relation to the controls are shown.

[3] = system: ribonuclease secreted by Capan-1; assay: Ribonuclease secretion and glycosylation pattern (zymogram); format: cell-based, human; settings: PCI 5 μg/mL, pre and postadhesion; DMEM + BMS 10%
From the text: To verify whether the PCI when affecting cell growth may provoke metabolic changes too, we analysed the changes in a secreted protein, ribonuclease, in the human pancreatic adenocarcinoma cell line Capan-1. Apart from the mentioned material required for cell culture, this analysis was based on the detection of ribonuclease activity by means of the electrophoretic analysis in activity gels (zymograms) (Bravo, J. et al (1994) Anal Biochem., 219: 82-86).
With this aim in mind, the culture medium of the proliferation tests of Section 4.B.1 was taken. Thus, a culture medium of control cells was provided for cells treated with PCI from the beginning (preanchorage) and for cells treated once they had adhered to the culture surface (postanchorage). Given the fact that the FBS contains bovine ribonuclease which would interfere in our research, these cells grew in DMEM supplemented with BMS at 10%. The procedure was as follows: […]
At the moment of the analyses, the media were unfrozen in order to have an aliquot of each sample. The concentration of total protein was determined by means of the Bradford method (Bradford, M. M. (1976) Anal. Biochem., 72: 248-254). […]
The analysis of ribonuclease secretion was done with Capan-1. […] Using the electrophoretic analysis of ribonuclease activity, the pattern of glycosylation of this protein could be observed and a certain quantification could be made.

[4] = system: human pancreatic adenocarcinoma cell line Capan-1; assay: Apoptosis by DAPI labeling and fluorescence microscope; format: cell-based
Method: The studies of possible induction of apoptosis by the PCI were done with the human pancreatic adenocarcinoma cell line Capan-1. The detailed procedure that was employed is as follows:
1. 5×10^5 cells were seed in the chambers/slides and were cultured for 3 o 4 days (until the moment in which, through microscope observation, they presented 75% of confluence). The cells were cultured in DMEM+10% FBS.
2. […] A positive control was added, cysplatinum, at a concentration of 10 μg/mL (a drug which induces apoptosis in various tumor cell lines, Borner, M. M., et al. (1995) Cancer Res., 55: 2122-2128. The incubation period was 24 h.
3. The medium was removed after incubation and the chamber was washed with 2 mL of PBS.
5. Cells were fixed with 2 mL of 2% formaldehyde for 20 min at 4° C.
6. The plates were washed again with 2 mL of PBS for 5 min at room temperature.
7. Cell membranes were permeabilized with 0.25% Triton ×100 in PBS for 5 min at 4° C.
8. Washed with PBS for 5 min at room temperature.
9. The cells were labeled with DAPI at a final concentration of 2 μg/mL for 50 min in darkness at room temperature.
10. The preparation was fitted with the fluoroprep medium and it was examined through the fluorescence microscope.
% apoptosis=(number of apoptotic cells/total number of cells)×100

## PCI: potato carboxypeptidase inhibitor, isoform IIa, obtained by recombinant DNA techniques in E. coli (SEQ ID NO.2) (EQHADPICNKPCKTHDDCSGAWFCQACWNSARTCGPYVG; disulfide 12-27, 18-34, 8-24)
[1]; 50 mg/mL wtPCI, serum-free medium
  Growth (Percentage in relation to the average of the controls): 107.6%
[1]; wtPCI in serum-free medium
  growth of Capan-1 cells: not altered
[2]; 0.1 µg/mL PCI in the medium, DMEM+10%FBS
  Growth (Percentage in relation to the average of the controls): 19.4%
[2]; 1 µg/mL PCI in the medium
  Growth (Percentage in relation to the average of the controls): 17.1%
[2]; 10 µg/mL PCI in the medium
  Growth (Percentage in relation to the average of the controls): 50.0%
[2]; 50 µg/mL PCI in the medium
  Growth (Percentage in relation to the average of the controls): 44.8%
[2]; 200 µg/mL PCI in the medium
  Growth (Percentage in relation to the average of the controls): 43.3%
[2]; concentrations of 0.1 and 1 μg/mL
  inhibition of the growth: higher than 80%
[2]; concentrations of 10, 50 and 200 μg/mL
  inhibition of the growth: ~50%
[3]
  secretion and glycosylation of ribonuclease compared to the control group: higher secretion of ribonuclease with a higher degree of glycosylation
[4]; 0,1 mg/mL PCI, 24 h (negative control 0.08)
  % Apoptosis: 0.11%
[4]; 10 mg/mL PCI, 24 h
  % Apoptosis: 0.095%
[4]; 50 mg/mL PCI, 24 h
  % Apoptosis: 0.41%
[4]; 200 mg/mL PCI, 24 h
  % Apoptosis: 0.038%
[4]; PCI 50 μg/mL, 24 h
  index of apoptosis relative to the control: 5 times
